Our source for the Activity values is ChEMBL document CHEMBL5678818, “Discovery of potent SOS1 inhibitors that block RAS activation via disruption of the RAS-SOS1 interaction” (Proc Natl Acad Sci U S A, 2019).

For test [1], the target named is T1, Serine/threonine-protein kinase Nek9 (Homo sapiens) (UniProt Q8TD19).
T1 sequence (whole entry): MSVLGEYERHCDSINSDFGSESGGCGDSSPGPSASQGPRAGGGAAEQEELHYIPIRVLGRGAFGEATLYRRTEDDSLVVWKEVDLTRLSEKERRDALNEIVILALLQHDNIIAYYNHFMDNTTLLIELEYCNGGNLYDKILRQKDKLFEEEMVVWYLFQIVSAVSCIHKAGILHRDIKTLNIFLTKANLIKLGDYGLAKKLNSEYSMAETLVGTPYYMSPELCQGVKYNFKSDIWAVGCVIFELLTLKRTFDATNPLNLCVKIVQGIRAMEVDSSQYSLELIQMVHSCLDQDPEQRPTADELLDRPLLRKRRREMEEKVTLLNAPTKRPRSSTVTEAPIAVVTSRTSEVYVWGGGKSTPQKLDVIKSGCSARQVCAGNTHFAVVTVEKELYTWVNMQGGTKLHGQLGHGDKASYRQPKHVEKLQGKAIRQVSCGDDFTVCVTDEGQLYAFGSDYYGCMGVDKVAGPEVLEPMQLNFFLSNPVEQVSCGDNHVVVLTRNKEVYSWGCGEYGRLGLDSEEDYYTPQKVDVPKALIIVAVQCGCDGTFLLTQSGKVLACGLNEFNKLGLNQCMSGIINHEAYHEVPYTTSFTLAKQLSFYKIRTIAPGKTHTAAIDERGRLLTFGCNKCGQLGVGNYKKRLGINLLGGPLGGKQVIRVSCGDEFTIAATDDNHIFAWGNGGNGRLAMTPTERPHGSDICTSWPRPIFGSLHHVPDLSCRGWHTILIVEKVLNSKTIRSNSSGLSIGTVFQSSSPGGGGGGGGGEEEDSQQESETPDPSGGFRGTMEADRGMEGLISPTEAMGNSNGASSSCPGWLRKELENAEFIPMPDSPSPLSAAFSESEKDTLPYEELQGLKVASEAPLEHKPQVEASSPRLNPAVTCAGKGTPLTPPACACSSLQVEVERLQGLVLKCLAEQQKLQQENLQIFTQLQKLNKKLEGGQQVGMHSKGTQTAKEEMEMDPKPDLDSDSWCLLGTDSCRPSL
As to the kind of experiment: Inhibition of NEK9 (unknown origin) assessed as residual activity at 1000 nM by KINOMEscan analysis relative to control.

Test [2] addresses Cyclin-dependent kinase 14 (Homo sapiens) (UniProt O94921). Kind of test: Inhibition of PFTK1 (unknown origin) assessed as residual activity at 1000 nM by KINOMEscan analysis relative to control.
Test [3] concerns the target Serine/threonine-protein kinase SIK3 (Homo sapiens) (UniProt Q9Y2K2). Kind of test: Inhibition of QSK (unknown origin) assessed as residual activity at 1000 nM by KINOMEscan analysis relative to control.
Test [4] deals with Ephrin type-A receptor 4 (Homo sapiens) (UniProt P54764). As to the kind of experiment: Inhibition of EPHA4 (unknown origin) assessed as residual activity at 1000 nM by KINOMEscan analysis relative to control.
Test [5] concerns the target Mast/stem cell growth factor receptor Kit (Homo sapiens) (UniProt P10721). As to the kind of experiment: Inhibition of autoinhibited KIT (unknown origin) assessed as residual activity at 1000 nM by KINOMEscan analysis relative to control.
The target in test [6] is Mitogen-activated protein kinase kinase kinase 11 (Homo sapiens) (UniProt Q16584). Kind of test: Inhibition of MLK3 (unknown origin) assessed as residual activity at 1000 nM by KINOMEscan analysis relative to control.
The subject of test [7] is Hepatocyte growth factor receptor (Homo sapiens), P08581 [Y1235D]. Kind of test: Inhibition of MET Y1235D mutant (unknown origin) assessed as residual activity at 1000 nM by KINOMEscan analysis relative to control.
Test [8] addresses Tyrosine-protein kinase Fyn (Homo sapiens) (UniProt P06241). Kind of test: Inhibition of FYN (unknown origin) assessed as residual activity at 1000 nM by KINOMEscan analysis relative to control.
Test [9] addresses Serine/threonine-protein kinase PRP4 homolog (Homo sapiens) (UniProt Q13523). Kind of test: Inhibition of PRP4 (unknown origin) assessed as residual activity at 1000 nM by KINOMEscan analysis relative to control.
Test [10] deals with T2, Megakaryocyte-associated tyrosine-protein kinase (Homo sapiens) (UniProt P42679).
T2 sequence (whole entry): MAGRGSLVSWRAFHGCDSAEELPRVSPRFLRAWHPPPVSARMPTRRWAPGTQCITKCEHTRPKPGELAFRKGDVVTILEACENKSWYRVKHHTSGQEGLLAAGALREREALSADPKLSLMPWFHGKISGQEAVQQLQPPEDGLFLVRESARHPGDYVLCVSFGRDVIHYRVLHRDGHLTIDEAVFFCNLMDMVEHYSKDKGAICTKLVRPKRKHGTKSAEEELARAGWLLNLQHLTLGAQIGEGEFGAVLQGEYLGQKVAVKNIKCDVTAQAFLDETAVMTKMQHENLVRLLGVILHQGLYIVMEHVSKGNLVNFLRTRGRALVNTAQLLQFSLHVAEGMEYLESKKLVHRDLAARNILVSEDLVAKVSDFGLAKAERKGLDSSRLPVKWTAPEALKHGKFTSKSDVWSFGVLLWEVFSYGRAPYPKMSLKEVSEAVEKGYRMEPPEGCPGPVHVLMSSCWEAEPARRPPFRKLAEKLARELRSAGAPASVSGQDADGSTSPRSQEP
As to the kind of experiment: Inhibition of CTK (unknown origin) assessed as residual activity at 1000 nM by KINOMEscan analysis relative to control.

Test [11] has as its system Epidermal growth factor receptor (Homo sapiens), P00533 [UNDEFINED MUTATION]. Kind of test: Inhibition of EGFR S752-I759del mutant (unknown origin) assessed as residual activity at 1000 nM by KINOMEscan analysis relative to control.
Test [12] addresses Serine/threonine-protein kinase 25 (Homo sapiens) (UniProt O00506). Kind of test: Inhibition of YSK1 (unknown origin) assessed as residual activity at 1000 nM by KINOMEscan analysis relative to control.
The target of test [13] is Tyrosine-protein kinase Lyn (Homo sapiens) (UniProt P07948). As to the kind of experiment: Inhibition of LYN (unknown origin) assessed as residual activity at 1000 nM by KINOMEscan analysis relative to control.

Sequence of Epidermal growth factor receptor (Homo sapiens), P00533 [UNDEFINED MUTATION] (P00533 whole entry, looked up, stated change not applied): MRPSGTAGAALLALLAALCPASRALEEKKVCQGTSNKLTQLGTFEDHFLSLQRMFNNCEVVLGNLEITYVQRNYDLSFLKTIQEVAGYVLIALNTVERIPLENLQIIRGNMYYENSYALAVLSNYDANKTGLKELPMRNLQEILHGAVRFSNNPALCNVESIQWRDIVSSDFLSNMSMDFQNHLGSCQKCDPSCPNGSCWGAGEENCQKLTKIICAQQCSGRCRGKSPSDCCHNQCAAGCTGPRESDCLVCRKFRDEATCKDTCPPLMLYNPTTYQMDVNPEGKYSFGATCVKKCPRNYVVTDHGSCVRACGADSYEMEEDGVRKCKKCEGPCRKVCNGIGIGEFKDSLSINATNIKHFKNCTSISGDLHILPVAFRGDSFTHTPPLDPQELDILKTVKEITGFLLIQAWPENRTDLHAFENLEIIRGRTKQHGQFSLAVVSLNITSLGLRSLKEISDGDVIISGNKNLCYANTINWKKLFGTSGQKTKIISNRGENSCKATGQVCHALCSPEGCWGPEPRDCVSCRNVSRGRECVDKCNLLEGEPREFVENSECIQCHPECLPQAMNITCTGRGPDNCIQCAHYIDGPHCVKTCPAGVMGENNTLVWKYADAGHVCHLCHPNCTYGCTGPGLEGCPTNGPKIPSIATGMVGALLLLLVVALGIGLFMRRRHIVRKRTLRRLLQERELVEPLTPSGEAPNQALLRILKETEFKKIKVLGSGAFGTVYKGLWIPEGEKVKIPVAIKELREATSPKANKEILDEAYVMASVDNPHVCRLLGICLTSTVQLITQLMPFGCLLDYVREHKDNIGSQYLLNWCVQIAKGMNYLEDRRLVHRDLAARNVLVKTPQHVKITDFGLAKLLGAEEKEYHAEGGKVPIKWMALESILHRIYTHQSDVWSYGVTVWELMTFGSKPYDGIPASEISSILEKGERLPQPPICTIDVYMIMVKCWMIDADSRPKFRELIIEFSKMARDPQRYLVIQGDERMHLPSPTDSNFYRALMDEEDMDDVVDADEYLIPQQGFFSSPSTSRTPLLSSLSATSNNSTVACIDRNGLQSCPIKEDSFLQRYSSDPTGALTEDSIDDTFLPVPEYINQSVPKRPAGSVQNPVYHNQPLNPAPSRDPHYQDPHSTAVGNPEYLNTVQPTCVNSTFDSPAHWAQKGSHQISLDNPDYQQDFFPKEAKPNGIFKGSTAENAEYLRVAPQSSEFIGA
Sequence of Ephrin type-A receptor 4 (Homo sapiens) (P54764 whole entry): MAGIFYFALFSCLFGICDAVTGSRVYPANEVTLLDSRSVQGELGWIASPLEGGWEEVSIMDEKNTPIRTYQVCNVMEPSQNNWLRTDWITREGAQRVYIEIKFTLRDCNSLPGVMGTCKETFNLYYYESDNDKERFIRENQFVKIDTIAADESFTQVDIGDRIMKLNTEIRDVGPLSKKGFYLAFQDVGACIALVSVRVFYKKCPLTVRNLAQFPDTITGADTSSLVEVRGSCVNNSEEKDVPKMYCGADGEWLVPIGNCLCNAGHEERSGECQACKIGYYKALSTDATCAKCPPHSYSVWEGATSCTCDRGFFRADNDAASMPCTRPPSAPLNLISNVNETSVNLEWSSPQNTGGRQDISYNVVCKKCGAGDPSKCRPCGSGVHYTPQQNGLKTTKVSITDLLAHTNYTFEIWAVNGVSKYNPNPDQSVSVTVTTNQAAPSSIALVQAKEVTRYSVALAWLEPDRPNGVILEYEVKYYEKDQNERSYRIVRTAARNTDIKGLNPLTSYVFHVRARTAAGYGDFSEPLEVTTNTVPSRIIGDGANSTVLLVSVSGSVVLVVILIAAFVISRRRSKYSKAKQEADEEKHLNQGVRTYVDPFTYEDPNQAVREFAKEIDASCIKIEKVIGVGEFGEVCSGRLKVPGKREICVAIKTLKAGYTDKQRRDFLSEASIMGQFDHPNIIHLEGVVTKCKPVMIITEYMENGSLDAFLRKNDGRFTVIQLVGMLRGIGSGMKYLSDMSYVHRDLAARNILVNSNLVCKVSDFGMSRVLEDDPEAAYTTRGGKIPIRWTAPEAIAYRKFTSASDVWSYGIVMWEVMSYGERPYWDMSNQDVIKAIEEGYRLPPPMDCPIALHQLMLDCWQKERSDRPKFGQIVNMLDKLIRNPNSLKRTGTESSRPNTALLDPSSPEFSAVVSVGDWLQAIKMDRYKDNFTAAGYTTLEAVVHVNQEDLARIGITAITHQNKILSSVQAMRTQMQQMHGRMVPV
Sequence of Mitogen-activated protein kinase kinase kinase 11 (Homo sapiens) (Q16584 whole entry, looked up): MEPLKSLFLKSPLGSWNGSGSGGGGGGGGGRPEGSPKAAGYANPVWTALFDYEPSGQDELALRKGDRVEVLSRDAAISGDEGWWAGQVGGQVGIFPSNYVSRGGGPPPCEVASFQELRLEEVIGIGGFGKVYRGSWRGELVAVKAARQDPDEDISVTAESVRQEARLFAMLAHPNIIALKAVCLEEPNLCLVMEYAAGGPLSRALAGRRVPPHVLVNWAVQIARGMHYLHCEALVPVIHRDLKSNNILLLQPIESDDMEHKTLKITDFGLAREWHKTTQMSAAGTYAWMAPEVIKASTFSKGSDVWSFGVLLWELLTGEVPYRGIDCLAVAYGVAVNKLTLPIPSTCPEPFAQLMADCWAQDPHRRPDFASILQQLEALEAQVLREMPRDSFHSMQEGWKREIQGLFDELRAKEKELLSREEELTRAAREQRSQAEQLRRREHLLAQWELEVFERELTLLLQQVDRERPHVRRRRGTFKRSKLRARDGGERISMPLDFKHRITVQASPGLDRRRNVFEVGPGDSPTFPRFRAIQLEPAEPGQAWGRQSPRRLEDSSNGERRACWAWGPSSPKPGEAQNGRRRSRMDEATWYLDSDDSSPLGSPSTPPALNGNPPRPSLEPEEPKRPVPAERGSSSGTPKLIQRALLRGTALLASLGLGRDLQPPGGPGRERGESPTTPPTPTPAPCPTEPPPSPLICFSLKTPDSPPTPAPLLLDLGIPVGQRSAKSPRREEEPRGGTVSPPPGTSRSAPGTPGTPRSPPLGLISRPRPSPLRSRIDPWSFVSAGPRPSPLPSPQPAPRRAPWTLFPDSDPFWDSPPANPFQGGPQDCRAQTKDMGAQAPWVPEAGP
Sequence of Serine/threonine-protein kinase SIK3 (Homo sapiens) (Q9Y2K2 whole entry, looked up): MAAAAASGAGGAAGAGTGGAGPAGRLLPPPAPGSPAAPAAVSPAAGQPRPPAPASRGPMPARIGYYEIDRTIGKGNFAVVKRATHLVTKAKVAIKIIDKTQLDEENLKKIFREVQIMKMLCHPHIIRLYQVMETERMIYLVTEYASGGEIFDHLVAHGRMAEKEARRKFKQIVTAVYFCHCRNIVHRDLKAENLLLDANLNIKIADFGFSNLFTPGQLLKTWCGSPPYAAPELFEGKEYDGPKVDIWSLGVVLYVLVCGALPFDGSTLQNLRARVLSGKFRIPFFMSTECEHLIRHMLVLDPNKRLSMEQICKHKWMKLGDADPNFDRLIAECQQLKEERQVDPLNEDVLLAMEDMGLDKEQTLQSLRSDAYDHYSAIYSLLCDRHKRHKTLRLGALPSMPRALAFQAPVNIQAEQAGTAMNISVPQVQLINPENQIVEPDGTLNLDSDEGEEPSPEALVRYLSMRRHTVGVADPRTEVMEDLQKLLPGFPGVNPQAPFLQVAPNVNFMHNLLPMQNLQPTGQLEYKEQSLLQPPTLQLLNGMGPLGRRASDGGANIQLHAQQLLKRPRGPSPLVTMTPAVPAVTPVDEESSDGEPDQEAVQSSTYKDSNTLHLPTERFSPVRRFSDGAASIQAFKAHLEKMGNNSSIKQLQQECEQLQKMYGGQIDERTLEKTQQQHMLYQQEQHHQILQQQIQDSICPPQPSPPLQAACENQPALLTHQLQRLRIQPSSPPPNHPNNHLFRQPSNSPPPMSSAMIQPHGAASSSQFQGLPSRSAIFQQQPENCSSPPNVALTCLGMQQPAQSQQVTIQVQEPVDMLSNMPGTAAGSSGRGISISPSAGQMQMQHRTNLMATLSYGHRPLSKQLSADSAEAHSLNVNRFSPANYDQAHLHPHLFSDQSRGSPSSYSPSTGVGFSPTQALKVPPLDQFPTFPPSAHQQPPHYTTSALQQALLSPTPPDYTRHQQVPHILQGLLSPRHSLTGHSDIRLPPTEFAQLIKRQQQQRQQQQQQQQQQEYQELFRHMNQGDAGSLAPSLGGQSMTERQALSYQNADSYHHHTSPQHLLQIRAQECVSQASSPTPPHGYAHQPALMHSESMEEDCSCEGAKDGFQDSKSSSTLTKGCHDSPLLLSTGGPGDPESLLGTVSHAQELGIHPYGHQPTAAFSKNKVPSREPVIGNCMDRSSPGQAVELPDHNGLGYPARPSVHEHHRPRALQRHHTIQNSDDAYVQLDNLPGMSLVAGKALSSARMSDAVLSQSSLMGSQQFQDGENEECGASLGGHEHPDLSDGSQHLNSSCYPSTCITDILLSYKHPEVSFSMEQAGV
Sequence of Tyrosine-protein kinase Fyn (Homo sapiens) (P06241 2-537 limits assumed): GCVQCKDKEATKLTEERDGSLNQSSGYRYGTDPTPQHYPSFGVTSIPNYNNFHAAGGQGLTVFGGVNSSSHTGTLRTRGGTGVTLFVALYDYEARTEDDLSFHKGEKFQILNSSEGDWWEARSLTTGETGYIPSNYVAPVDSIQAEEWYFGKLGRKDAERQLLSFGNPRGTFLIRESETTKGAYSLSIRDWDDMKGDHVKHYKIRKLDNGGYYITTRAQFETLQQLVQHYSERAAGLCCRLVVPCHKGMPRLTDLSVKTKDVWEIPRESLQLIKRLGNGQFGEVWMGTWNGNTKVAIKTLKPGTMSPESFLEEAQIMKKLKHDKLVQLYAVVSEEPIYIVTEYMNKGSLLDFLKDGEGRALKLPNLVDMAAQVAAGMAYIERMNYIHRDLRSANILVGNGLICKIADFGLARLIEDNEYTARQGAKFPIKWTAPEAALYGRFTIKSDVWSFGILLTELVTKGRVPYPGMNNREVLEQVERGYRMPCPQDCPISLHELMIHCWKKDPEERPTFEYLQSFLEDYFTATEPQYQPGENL

As for `COc1cc2nc(C)nc(N[C@H](C)c3cccc(-c4cn[nH]c4)c3)c2cc1OC`, the Activity was 97% in [1]; 93% in test [2]; 83% in test [3]; 96% in test [4]; 100% in test [5]; 100% in test [6]. In addition, the Activity worked out at 78% in test [7]; 72% in test [8]; 94% in test [9]; 99% in [10]; 82% in test [11]; 99% in test [12]. In addition, the Activity in test [13] came to 100%.

For the compound `COc1cc2ncnc(N[C@H](C)c3cccc4ccccc34)c2cc1OC`, the Activity in test [1] stood at 100%; in test [2], 100%; in [3] it was 84%; in test [4], 95%; in [5], 93%; in [6] it was 100%. Moreover, the Activity in [7] turned out to be 100%; in test [8] it was 100%; in test [9] it was 95%; in [10] it was 62%; in test [11], 13%; in test [12], 100%. In [13], the Activity worked out at 91%.
